Results: paper doi:10.1101/2023.09.01.555951v1 (biorxiv, 2023)
Positions count from the first letter of the chain named.

Key:
[1] = molecular target: T1, OpuAC (isolated SBD of OpuA) (Lactococcus lactis, UniProt Q7DAU8); test: intrinsic tryptophan fluorescence titration; type: binding
T1 sequence (Q7DAU8 319-573): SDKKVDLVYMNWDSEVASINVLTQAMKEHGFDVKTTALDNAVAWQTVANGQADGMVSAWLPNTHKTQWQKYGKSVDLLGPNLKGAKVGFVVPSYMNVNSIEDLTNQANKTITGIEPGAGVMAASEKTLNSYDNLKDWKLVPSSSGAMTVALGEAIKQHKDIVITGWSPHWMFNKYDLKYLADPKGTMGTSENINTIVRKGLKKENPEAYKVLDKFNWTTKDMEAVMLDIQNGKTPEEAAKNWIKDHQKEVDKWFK

[2] = molecular target: T2, OpuAC (isolated SBD of OpuA) (Lactococcus lactis, UniProt Q7DAU8, K521C/S319C); test: intrinsic tryptophan fluorescence titration; type: binding
T2 sequence (Q7DAU8 319-573 S319C/K521C): T1 sequence (Q7DAU8 319-573) with S1C, K203C

**Q.** Which results are given for C[N+](C)(C)CC(=O)[O-] [glycine betaine]?
**A.** Kd [1]: 4.4 ± 0.1 µM; Kd [2]: 4.3 ± 0.4 µM
